Results from US6008230A, “Quinoline compounds as H^+ -ATPases” (Fujisawa Pharmaceutical Co., Ltd., priority 1995, dated 1999).
Structures can show the parent of a compound that is named as a salt.

How the values were obtained:
[1] = test system: vacuolar type H^+ -ATPase; test: Inhibition of vacuolar type H^+ -ATPase proton transport; assay type: biochemical; conditions: microsomes from mouse peritoneal macrophages; acridine orange uptake; concentration 1×10^-6 M; pH 7.0
Procedure: Test 1 (Inhibition of vacuolar type H^+ -ATPase proton transport): Test Method (a) Preparation of microsomes from mouse peritoneal macrophages Seven-week-old male ddY mice were injected intraperitoneally with 2 ml of 3% thioglycolate medium. After 3-5 days, the mice were decapitated, and the peritoneal macrophages were obtained by peritoneal lavage with 5-6 ml of Hanks' balanced salt solution (HBSS). The cells were washed twice with cold HBSS. Vesicles were prepared from the cells, homogenized in a Douncee homogenizer (20 strokes) in 10 ml of 250 mM sucrose, 5 mM Tris, 1 mM EGTA, 1 mM KHCO3 and 1 mM dithiothreitol, pH 7.0, at 4° C. After an initial centrifugation (1000× g for 5 minutes), the supernatant was centrifuged 6000× g for 15 minutes) to remove mitochondria and lysosomes. The supernatant was centrifuged at 42000× g for 30 minutes, and microsomal pellet was collected and stored at -80° C. (b) Measurement of proton transport Proton transport was assayed with a dual-wavelength spectrophotometer by monitering uptake of acridine orange (Reference 540 nm, Measurement 492 nm) [H. C. Blair, J. Cell. Biol., 102, 1164 (1986)] with aliquot of membrane vesicles suspended in […] of assay buffer containing 150 mM KCl, 10 mM bis-tris-propane, 2 mM MgCl2, […], […] oligomycin and test compounds (concentration: 1×10^-6 M), pH 7.0. The reaction was initiated by addition of 1 mM ATP. Results were expressed as the percent of control.

[2] = test system: PTH-induced bone resorption (calvariae from Wistar rats); test: Bone organ culture: inhibition of PTH-induced bone resorption; assay type: cell-based; conditions: 144 h; Wistar rat calvariae; 10^-8 M human PTH (1-34); concentration 1×10^-6 M; six days
Procedure: Test 2 (Bone organ culture) Test Method […] In control dishes, PTH was not added. Control and PTH control were exposed to an equivalent concentration of the vehicle. Six days later, the concentration of calcium ((Ca]) in the medium was measured by methylxylenol blue method and the percentage of inhibition of PTH-induced bone resorption was calculated according to following formula [formula] Cp: [Ca] in PTH control dishes CD: [Ca] in the test compound dishes C0 : [Ca] in control dishes

SMILES | Inhibition (%) of vacuolar type H^+ -ATPase proton transport [1] [%] | inhibition at 1 µM [2] [%]
C=Cc1cnc2c(NC(=O)c3c(Cl)cccc3Cl)cccc2c1CC(=O)NCc1ccccn1 [71-(2), 8-(2,6-dichlorobenzoylamino)-4-[(pyridin-2-ylmethyl)carbamoylmethyl]-3-vinylquinoline] | 93 | 100
Cl.N#Cc1cnc2c(NC(=O)c3c(Cl)cccc3Cl)cccc2c1Cn1ccnc1 [52 (hydrochloride), 3-cyano-8-(2,6-dichlorobenzoylamino)-4-(imidazol-1-ylmethyl)quinoline hydrochloride] | 100 | 100
C=CCc1cnc2c(NC(=O)c3c(Cl)cccc3Cl)cccc2c1Sc1ncc[nH]1 [28 (dihydrochloride), 8-(2,6-Dichlorobenzoylamino)-4-(imidazol-2-ylthio)-3-allylquinoline] | 94 | 100
O=C(Nc1cccc2c(-n3cccn3)ccnc12)c1c(Cl)cccc1Cl [85-(2) (free), 8-(2,6-Dichlorobenzoylamino)-4-(pyrazol-1-yl)quinoline] | 97 | 100
C#Cc1cnc2c(NC(=O)c3c(Cl)cccc3Cl)cccc2c1 [Example 5, 8-(2,6-dichlorobenzoylamino)-3-ethynylquinoline] | 100 | 98
